Reference: publication PMC11345841, “Exploring 2-Sulfonylpyrimidine Warheads as Acrylamide Surrogates for Targeted Covalent Inhibition: A BTK Story” (Journal of Medicinal Chemistry, 2024)
Read-outs that look alike come from different tables or passages of the source.

Tests used:
[1] = target: T1, ABL1(Q252H)-phosphorylated (Homo sapiens, UniProt P00519, Q252H); assay: KINOMEscan ScanTK; format: binding; settings: for difference in %Control versus reference Ib at 1 µM: read-out: % difference (compound - Ib %Control)
T1 construct: purchased Eurofins DiscoverX KINOMEscan (scanTK)

EPHA7 = target: T2, EPHA7 (Homo sapiens, UniProt Q15375); assay: KINOMEscan ScanTK; format: binding
T2 construct: purchased Eurofins DiscoverX KINOMEscan (scanTK)

IGF1R = target: T3, IGF1R (Homo sapiens, UniProt P08069); assay: KINOMEscan ScanTK; format: binding
T3 construct: purchased Eurofins DiscoverX KINOMEscan (scanTK)

FLT4 = target: T4, FLT4 (Homo sapiens, UniProt P35916); assay: KINOMEscan ScanTK; format: binding
T4 construct: purchased Eurofins DiscoverX KINOMEscan (scanTK)

ERBB4 = target: T5, ERBB4 (Homo sapiens, UniProt Q15303); assay: KINOMEscan ScanTK; format: binding
T5 construct: purchased Eurofins DiscoverX KINOMEscan (scanTK)

ZAP70 = target: T6, ZAP70 (Homo sapiens, UniProt P43403); assay: KINOMEscan ScanTK; format: binding
T6 construct: purchased Eurofins DiscoverX KINOMEscan (scanTK)
T6 sequence (P43403 1-619): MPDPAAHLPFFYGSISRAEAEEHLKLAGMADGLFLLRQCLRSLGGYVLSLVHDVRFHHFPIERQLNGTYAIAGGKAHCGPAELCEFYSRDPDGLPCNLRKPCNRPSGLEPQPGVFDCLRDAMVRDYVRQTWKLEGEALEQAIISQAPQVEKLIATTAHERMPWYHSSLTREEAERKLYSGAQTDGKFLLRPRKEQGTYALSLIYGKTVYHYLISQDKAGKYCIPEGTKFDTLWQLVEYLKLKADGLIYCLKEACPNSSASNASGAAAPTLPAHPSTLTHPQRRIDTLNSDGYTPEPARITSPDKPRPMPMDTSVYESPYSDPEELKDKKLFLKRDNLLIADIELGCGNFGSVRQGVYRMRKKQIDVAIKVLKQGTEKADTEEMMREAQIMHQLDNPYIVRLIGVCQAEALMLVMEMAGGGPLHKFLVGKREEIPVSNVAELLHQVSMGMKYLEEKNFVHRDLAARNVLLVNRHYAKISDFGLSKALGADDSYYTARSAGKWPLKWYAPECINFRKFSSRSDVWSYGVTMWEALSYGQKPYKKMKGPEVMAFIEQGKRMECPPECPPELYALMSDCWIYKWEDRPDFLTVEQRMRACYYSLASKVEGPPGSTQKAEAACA

YES = target: T7, YES (Homo sapiens, UniProt P07947); assay: KINOMEscan ScanTK; format: binding
T7 construct: purchased Eurofins DiscoverX KINOMEscan (scanTK)

RET = target: T8, RET (Homo sapiens, UniProt P07949); assay: KINOMEscan ScanTK; format: binding
T8 construct: purchased Eurofins DiscoverX KINOMEscan (scanTK)

LYN = target: T9, LYN (Homo sapiens, UniProt P07948); assay: KINOMEscan ScanTK; format: binding
T9 construct: purchased Eurofins DiscoverX KINOMEscan (scanTK)

FLT3(N841I) = target: T10, FLT3(N841I) (Homo sapiens, UniProt P36888, N841I); assay: KINOMEscan ScanTK; format: binding
T10 construct: purchased Eurofins DiscoverX KINOMEscan (scanTK)
T10 sequence (P36888 27-993 N841I): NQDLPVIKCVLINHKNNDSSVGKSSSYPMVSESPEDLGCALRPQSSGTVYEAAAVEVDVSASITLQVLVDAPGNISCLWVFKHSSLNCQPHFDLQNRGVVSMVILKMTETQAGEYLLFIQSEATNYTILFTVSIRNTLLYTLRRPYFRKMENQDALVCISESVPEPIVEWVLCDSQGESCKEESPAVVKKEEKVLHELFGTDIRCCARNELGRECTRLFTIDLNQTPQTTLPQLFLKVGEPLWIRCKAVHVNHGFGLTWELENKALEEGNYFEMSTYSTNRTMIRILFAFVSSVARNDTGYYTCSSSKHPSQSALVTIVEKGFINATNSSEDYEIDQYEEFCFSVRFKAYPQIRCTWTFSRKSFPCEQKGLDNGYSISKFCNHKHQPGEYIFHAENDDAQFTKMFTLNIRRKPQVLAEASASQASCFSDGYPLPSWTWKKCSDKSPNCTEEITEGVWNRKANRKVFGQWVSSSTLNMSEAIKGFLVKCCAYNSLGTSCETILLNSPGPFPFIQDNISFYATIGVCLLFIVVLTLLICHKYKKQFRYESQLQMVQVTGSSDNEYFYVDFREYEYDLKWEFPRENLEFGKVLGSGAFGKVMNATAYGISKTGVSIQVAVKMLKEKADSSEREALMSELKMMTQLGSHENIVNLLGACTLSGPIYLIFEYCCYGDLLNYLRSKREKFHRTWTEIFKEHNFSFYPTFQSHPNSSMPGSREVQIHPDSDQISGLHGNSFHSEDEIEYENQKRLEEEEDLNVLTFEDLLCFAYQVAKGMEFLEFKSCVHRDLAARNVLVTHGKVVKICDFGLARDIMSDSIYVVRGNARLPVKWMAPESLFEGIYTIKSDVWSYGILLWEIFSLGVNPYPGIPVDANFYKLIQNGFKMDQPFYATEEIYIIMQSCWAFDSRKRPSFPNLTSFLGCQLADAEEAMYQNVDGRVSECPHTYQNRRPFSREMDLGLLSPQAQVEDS

[2] = target: T11, EGFR, cytoplasmic domain (669–1210) (Homo sapiens, UniProt P00533); assay: PhosphoSens enzymatic IC50 (AssayQuant); format: biochemical; settings: no preincubation
T11 construct: GST (N); purchased Carna Biosciences
From the text: (§1) Biochemical enzymatic IC50 data were generated by AssayQuant Technologies (Marlborough, MA) using the PhosphoSens Platform. […] Reaction rate versus log [inhibitor concentration] data were fitted to the four-parameter logistic equation [drawing 1]

BTK, full length (2–659) = BTK, full length (2–659) (Homo sapiens, UniProt Q06187); assay: PhosphoSens enzymatic IC50 (AssayQuant); format: biochemical; settings: for IC50: 1 nM BTK, 1.0 mM ATP
From the text: as §1

T7 sequence (P07947 whole entry): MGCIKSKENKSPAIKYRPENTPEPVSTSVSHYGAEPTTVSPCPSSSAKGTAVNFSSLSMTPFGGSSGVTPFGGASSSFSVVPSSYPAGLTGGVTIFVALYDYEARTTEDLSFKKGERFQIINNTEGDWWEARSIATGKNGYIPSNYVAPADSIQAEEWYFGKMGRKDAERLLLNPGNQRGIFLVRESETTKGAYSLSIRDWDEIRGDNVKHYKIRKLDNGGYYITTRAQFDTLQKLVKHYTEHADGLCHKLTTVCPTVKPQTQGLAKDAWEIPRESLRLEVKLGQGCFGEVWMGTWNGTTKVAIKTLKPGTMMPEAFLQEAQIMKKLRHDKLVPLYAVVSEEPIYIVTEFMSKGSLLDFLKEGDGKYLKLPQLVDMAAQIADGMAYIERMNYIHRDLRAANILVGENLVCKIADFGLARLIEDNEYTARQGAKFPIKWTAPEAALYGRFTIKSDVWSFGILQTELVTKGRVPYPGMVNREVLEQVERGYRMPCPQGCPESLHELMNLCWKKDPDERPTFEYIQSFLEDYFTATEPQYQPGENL
T2 sequence (Q15375 28-998): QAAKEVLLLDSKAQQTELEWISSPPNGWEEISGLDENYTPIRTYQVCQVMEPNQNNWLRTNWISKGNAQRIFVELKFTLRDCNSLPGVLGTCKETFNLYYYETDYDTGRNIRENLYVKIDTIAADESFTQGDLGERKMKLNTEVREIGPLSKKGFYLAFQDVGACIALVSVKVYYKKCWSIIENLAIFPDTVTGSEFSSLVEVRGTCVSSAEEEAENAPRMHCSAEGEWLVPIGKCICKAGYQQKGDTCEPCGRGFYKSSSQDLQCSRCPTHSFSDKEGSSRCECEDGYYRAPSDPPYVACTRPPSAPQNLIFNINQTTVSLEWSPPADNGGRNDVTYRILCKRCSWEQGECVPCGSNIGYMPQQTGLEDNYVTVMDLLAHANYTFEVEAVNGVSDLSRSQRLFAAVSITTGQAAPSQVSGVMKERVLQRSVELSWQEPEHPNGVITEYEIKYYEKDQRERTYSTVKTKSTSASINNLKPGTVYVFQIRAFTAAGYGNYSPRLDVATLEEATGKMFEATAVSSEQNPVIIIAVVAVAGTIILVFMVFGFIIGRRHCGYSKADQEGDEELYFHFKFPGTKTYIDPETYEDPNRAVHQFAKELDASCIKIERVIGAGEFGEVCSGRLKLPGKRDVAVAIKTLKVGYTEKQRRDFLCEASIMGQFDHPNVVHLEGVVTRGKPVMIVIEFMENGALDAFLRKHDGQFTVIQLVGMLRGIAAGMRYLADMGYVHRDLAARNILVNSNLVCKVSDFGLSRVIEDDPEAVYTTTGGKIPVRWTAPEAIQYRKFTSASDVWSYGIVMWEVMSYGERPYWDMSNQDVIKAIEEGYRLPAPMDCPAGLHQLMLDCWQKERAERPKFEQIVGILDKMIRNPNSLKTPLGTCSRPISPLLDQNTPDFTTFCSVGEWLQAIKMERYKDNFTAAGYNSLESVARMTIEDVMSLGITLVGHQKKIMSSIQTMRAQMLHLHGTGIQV
T5 sequence (Q15303 26-1308): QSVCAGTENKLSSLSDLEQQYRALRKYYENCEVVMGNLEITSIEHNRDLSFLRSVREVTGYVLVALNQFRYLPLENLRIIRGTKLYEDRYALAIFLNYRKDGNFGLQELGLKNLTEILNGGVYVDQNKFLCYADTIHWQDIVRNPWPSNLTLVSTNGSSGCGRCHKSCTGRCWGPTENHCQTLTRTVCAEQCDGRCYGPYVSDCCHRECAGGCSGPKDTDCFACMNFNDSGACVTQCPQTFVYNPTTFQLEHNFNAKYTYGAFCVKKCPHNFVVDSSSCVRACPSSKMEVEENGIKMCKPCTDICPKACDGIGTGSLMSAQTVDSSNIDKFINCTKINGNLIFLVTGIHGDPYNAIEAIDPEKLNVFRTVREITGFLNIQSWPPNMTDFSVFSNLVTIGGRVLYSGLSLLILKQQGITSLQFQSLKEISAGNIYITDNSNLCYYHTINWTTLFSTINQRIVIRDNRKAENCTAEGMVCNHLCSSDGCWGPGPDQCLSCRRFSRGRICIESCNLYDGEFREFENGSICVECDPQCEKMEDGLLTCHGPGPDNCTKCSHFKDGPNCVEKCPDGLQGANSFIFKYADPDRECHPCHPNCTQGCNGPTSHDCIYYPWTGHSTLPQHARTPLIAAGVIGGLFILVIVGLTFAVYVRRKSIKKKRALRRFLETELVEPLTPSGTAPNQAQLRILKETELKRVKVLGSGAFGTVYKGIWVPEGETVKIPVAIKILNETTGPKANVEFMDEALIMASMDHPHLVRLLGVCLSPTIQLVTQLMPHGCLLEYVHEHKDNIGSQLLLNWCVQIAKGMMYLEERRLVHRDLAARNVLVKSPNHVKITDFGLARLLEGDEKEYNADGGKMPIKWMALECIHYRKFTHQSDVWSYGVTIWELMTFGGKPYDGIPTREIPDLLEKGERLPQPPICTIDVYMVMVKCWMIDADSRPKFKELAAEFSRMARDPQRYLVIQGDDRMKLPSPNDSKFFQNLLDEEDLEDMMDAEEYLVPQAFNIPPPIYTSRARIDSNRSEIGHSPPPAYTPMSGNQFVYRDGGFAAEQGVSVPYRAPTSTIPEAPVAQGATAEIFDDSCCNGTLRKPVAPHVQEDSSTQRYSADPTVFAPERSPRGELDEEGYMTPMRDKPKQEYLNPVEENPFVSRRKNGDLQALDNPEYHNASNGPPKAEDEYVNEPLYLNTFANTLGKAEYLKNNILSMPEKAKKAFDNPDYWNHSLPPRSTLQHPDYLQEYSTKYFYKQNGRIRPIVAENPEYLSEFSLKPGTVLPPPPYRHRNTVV
Chain of BTK, full length (2–659) (Q06187 2-659): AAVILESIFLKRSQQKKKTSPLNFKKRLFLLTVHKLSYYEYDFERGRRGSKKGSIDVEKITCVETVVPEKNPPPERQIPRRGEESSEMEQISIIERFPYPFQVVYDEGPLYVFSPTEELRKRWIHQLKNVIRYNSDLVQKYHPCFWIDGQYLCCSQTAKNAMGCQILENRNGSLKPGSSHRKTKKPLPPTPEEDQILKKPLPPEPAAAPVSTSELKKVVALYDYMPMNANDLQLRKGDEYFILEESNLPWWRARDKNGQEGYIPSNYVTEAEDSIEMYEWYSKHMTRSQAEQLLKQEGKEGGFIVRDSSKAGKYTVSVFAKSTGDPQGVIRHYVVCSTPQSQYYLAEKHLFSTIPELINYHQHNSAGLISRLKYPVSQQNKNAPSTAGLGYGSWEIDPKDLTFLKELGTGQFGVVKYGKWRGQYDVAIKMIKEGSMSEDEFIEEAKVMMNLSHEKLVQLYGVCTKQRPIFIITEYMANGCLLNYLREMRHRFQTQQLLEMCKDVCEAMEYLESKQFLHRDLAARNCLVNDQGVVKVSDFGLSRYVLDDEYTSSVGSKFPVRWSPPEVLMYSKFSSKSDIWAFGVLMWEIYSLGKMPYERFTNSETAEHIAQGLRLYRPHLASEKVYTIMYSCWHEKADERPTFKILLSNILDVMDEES
T3 sequence (P08069 31-1367): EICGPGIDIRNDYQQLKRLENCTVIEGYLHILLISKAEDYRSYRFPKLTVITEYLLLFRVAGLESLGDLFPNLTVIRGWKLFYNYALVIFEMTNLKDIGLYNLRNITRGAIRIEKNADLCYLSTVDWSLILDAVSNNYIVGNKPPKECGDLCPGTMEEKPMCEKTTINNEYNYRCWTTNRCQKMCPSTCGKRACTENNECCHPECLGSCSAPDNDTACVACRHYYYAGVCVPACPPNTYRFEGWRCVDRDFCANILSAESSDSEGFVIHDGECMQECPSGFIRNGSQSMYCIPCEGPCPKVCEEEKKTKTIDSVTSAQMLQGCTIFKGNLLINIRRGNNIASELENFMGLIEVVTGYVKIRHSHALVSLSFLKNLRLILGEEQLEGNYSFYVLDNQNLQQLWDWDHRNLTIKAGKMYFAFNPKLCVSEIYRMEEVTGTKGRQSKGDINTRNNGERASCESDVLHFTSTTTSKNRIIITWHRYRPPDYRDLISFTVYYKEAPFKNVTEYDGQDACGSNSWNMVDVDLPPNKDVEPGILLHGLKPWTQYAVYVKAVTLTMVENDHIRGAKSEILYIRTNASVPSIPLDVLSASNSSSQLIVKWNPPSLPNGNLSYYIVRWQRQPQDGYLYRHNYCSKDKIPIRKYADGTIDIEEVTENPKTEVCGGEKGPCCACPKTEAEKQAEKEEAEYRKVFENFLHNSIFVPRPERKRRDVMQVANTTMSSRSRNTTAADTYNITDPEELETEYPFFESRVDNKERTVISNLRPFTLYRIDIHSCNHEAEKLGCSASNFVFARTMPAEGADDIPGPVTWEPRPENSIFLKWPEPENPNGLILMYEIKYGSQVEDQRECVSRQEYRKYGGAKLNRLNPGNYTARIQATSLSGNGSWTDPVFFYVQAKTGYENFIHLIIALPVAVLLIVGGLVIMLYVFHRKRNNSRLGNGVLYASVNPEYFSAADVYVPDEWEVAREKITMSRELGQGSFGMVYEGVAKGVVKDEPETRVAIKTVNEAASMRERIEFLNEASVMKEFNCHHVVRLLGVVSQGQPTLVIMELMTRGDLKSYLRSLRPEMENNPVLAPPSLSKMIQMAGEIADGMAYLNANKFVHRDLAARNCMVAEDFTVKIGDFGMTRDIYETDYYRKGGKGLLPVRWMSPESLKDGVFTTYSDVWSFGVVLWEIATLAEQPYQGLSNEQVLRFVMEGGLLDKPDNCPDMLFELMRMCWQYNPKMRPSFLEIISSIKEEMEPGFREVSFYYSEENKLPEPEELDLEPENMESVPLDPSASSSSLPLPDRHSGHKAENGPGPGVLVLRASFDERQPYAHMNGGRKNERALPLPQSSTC

| Compound | difference in %Control versus reference Ib at 1 µM ([1]; @1000nM) | remaining binding at 1 µM ([1]; @1000nM, read-out: %Control) | remaining binding at 1 µM ([1]; read-out: %Control @1000nM) | difference in %Control versus compound Ib at 1 µM (EPHA7; @1000nM) | remaining binding at 1 µM (EPHA7; @1000nM, read-out: %Control) | remaining binding at 1 µM (EPHA7; read-out: %Control @1000nM) | % Control difference from reference compound Ib at 1 µM (IGF1R; @1000nM) | remaining binding at 1 µM (IGF1R; @1000nM, read-out: %Control) | remaining binding at 1 µM (IGF1R; read-out: %Control @1000nM) | difference in %Control from compound Ib at 1 µM (FLT4; @1000nM) | remaining binding at 1 µM (FLT4; @1000nM, read-out: %Control) | remaining binding at 1 µM (FLT4; read-out: %Control @1000nM) | difference in %Control versus compound Ib at 1 µM (ERBB4; @1000nM) | remaining binding at 1 µM (ERBB4; @1000nM, read-out: %Control) | remaining binding at 1 µM (ERBB4; read-out: %Control @1000nM) | remaining binding at 1 µM (ZAP70; @1000nM, read-out: %Control) | remaining binding at 1 µM (ZAP70; read-out: %Control @1000nM) | remaining binding at 1 µM (YES; @1000nM, read-out: %Control) | remaining binding at 1 µM (YES; read-out: %Control @1000nM) | remaining binding at 1 µM (RET; @1000nM, read-out: %Control) | further results |
| --- | --- | --- | --- | --- | --- | --- | --- | --- | --- | --- | --- | --- | --- | --- | --- | --- | --- | --- | --- | --- | --- |
| COC(=O)c1cnc(S(C)(=O)=O)nc1N1CCCC(n2nc(-c3ccc(Oc4ccccc4)cc3)c3c(N)ncnc32)C1 (stereo not drawn) [Compound 8b, Methyl 4-(3-(4-Amino-3-(4-phenoxyphenyl)-1H-pyrazolo[3,4-d]pyrimidin-1-yl)piperidin-1-yl)-2-(methylsulfonyl)pyrimidine-5-carboxylate] | -2% | 92% | 92% | -2% | 93% | 93% | -2% | 94% | 94% | 62% | 89% | 89% | 0.5% | 0.55% | 0.55% | 94% | 94% | 16% | 16% | 56% | remaining binding at 1 µM (RET; read-out: %Control @1000nM): 56%; remaining binding at 1 µM (LYN; @1000nM, read-out: %Control): 49%; remaining binding at 1 µM (LYN; read-out: %Control @1000nM): 49%; difference in %Control versus compound Ib at 1 µM (FLT3(N841I); @1000nM): 43%; remaining binding at 1 µM (FLT3(N841I); @1000nM, read-out: %Control): 62%; remaining binding at 1 µM (FLT3(N841I); read-out: %Control @1000nM): 62%; 0 min IC50 (nM), 3 nM EGFR [2]: none of the compounds, 8a, 8b, or 8d, exhibited measurable inhibition; IC50 [2]: > 1000 nM; IC50 (BTK, full length (2–659); 0 min preincubation IC50 (nM), 0 min preincubation): 79 nM; IC50 (BTK, full length (2–659); 60 min preincubation IC50 (nM), 60 min preincubation): 6.3 nM; fold change, 1 nM BTK (BTK, full length (2–659); IC50 0 min vs 60 min preincubation): 12.5 |
| CCOC(=O)c1cnc(S(C)(=O)=O)nc1N1CCC[C@@H](n2nc(-c3ccc(Oc4ccccc4)cc3)c3c(N)ncnc32)C1 [Compound 8c, Ethyl (R)-4-(3-(4-Amino-3-(4-phenoxyphenyl)-1H-pyrazolo[3,4-d]pyrimidin-1-yl)piperidin-1-yl)-2-(methylsulfonyl)pyrimidine-5-carboxylate] | -2% | 92% | 92% | 2% | 97% | 97% | -4% | 92% | 92% | 73% | 100% | 100% | 5.15% | 5.2% | 5.2% | 100% | 100% | 25% | 25% | 84% | remaining binding at 1 µM (RET; read-out: %Control @1000nM): 84%; remaining binding at 1 µM (LYN; @1000nM, read-out: %Control): 72%; remaining binding at 1 µM (LYN; read-out: %Control @1000nM): 72%; difference in %Control versus compound Ib at 1 µM (FLT3(N841I); @1000nM): 54%; remaining binding at 1 µM (FLT3(N841I); @1000nM, read-out: %Control): 73%; remaining binding at 1 µM (FLT3(N841I); read-out: %Control @1000nM): 73% |
